Test results reported in ChEMBL document CHEMBL2057192, “Small molecular weight PEGylation of diosgenin in an in vivo animal study for diabetic auditory impairment treatment” (Bioorg Med Chem Lett, 2012).
Calls of active or inactive are those of the source. No cut-off for these calls is given here.

Assays:
Mus musculus [1] = experiment: Protective activity against hearing loss in streptozotocin-induced diabetic ICR mouse using 4 KHz tone bursts at 20 mg/kg, po administered QD measured after 8 weeks by auditory brainstem response test; format: functional, organism-based; set-up: dose 20 mg/kg
Mus musculus [2] = experiment: Antidiabetic activity in streptozotocin-induced diabetic ICR mouse assessed as change in body weight at 20 mg/kg, po administered QD measured 1 week after STZ challenge (reference value: 33.25 +/- 0.75 g); format: functional
Mus musculus [3] = experiment: Protective activity against hearing loss in streptozotocin-induced diabetic ICR mouse assessed as increase in negative A peak-positive A peak amplitude at 10 mg/kg, po administered QD measured after 8 weeks by auditory middle latency response test; format: functional, organism-based; set-up: dose 10 mg/kg
Mus musculus [4] = experiment: Antidiabetic activity in streptozotocin-induced diabetic ICR mouse assessed as change in blood glucose level at 20 mg/kg, po administered QD measured 1 week after STZ challenge (reference value: 516.33 +/- 46.73 mg/dl); format: functional
Mus musculus [5] = experiment: Antidiabetic activity in streptozotocin-induced diabetic ICR mouse assessed as change in blood glucose level at 10 mg/kg, po administered QD measured 9 weeks after STZ challenge (reference value: 529.90 +/- 49.17 mg/dl); format: functional
Mus musculus [6] = experiment: Protective activity against hearing loss in streptozotocin-induced diabetic ICR mouse assessed as increase in signal intensity-to-noise ratio at 10 mg/kg, po administered QD measured after 8 weeks by transient evoked otoacoustic emission test; format: functional, organism-based; set-up: dose 10 mg/kg
Mus musculus [7] = experiment: Protective activity against hearing loss in streptozotocin-induced diabetic ICR mouse assessed as decrease in positive A peak latency at 20 mg/kg, po administered QD measured after 8 weeks by auditory middle latency response test; format: functional, organism-based; set-up: dose 20 mg/kg
Mus musculus [8] = experiment: Antidiabetic activity in streptozotocin-induced diabetic ICR mouse assessed as change in blood glucose level at 10 mg/kg, po administered QD measured 1 week after STZ challenge (reference value: 516.33 +/- 46.73 mg/dl); format: functional
Mus musculus [9] = experiment: Protective activity against hearing loss in streptozotocin-induced diabetic ICR mouse using 8 KHz tone bursts at 10 mg/kg, po administered QD measured after 8 weeks by auditory brainstem response test; format: functional, organism-based; set-up: dose 10 mg/kg
Mus musculus [10] = experiment: Antidiabetic activity in streptozotocin-induced diabetic ICR mouse assessed as change in blood glucose level at 20 mg/kg, po administered QD measured 9 weeks after STZ challenge (reference value: 529.90 +/- 49.17 mg/dl); format: functional
Mus musculus [11] = experiment: Protective activity against hearing loss in streptozotocin-induced diabetic ICR mouse assessed as increase in negative A peak-positive A peak amplitude at 20 mg/kg, po administered QD measured after 8 weeks by auditory middle latency response test; format: functional, organism-based; set-up: dose 20 mg/kg
Mus musculus [12] = experiment: Protective activity against hearing loss in streptozotocin-induced diabetic ICR mouse using 8 KHz tone bursts at 20 mg/kg, po administered QD measured after 8 weeks by auditory brainstem response test; format: functional, organism-based; set-up: dose 20 mg/kg
Mus musculus [13] = experiment: Antidiabetic activity in streptozotocin-induced diabetic ICR mouse assessed as change in body weight at 20 mg/kg, po administered QD measured 9 weeks after STZ challenge (reference value: 34.15 +/- 1.16 g); format: functional
Mus musculus [14] = experiment: Antidiabetic activity in streptozotocin-induced diabetic ICR mouse assessed as change in body weight at 10 mg/kg, po administered QD measured 1 week after STZ challenge (reference value: 33.25 +/- 0.75 g); format: functional
Mus musculus [15] = experiment: Protective activity against hearing loss in streptozotocin-induced diabetic ICR mouse using 4 KHz tone bursts at 10 mg/kg, po administered QD measured after 8 weeks by auditory brainstem response test; format: functional, organism-based; set-up: dose 10 mg/kg
Mus musculus [16] = experiment: Protective activity against hearing loss in streptozotocin-induced diabetic ICR mouse assessed as increase in signal intensity-to-noise ratio at 20 mg/kg, po administered QD measured after 8 weeks by transient evoked otoacoustic emission test; format: functional, organism-based; set-up: dose 20 mg/kg
Mus musculus [17] = experiment: Antidiabetic activity in streptozotocin-induced diabetic ICR mouse assessed as change in body weight at 10 mg/kg, po administered QD measured 9 weeks after STZ challenge (reference value: 34.15 +/- 1.16 g); format: functional
Mus musculus [18] = experiment: Protective activity against hearing loss in streptozotocin-induced diabetic ICR mouse assessed as decrease in positive A peak latency at 10 mg/kg, po administered QD measured after 8 weeks by auditory middle latency response test; format: functional, organism-based; set-up: dose 10 mg/kg
[19] = Oral bioavailability in rat; format: ADME, organism-based; conditions: in vivo
[20] = Lipophilicity, log P of the compound; format: physicochemical; conditions: octanol/water

logP [20] | SMILES | Activity (Mus musculus [1]) | Activity (Mus musculus [2]) | Activity (Mus musculus [3]) | Activity (Mus musculus [4]) | Activity (Mus musculus [5]) | Activity (Mus musculus [6]) | Activity (Mus musculus [7]) | Activity (Mus musculus [8]) | Activity (Mus musculus [9]) | Activity (Mus musculus [10]) | Activity (Mus musculus [11]) | Activity (Mus musculus [12]) | Activity (Mus musculus [13]) | Activity (Mus musculus [14]) | Activity (Mus musculus [15]) | Activity (Mus musculus [16]) | Activity (Mus musculus [17]) | Activity (Mus musculus [18]) | bioavailability [19]
 | COCCOCCOCCOCCO[C@H]1CC[C@@]2(C)C(=CC[C@H]3[C@@H]4C[C@@H]5O[C@]6(CC[C@@H](C)CO6)[C@@H](C)[C@@H]5[C@@]4(C)CC[C@@H]32)C1 | Active | 32.55 g | Active | 582.8 mg/dL | 565.56 mg/dL | Active | Active | 522.18 mg/dL | Active | 501.6 mg/dL | Active | Active | 37.6 g | 30.5 g | Active | Active | 33.72 g | Active | 
 | C[C@@H]1CC[C@@]2(OC1)O[C@H]1C[C@H]3[C@@H]4CC=C5C[C@@H](O[C@@H]6O[C@H](CO)[C@@H](O[C@@H]7O[C@@H](C)[C@H](O)[C@@H](O)[C@H]7O)[C@H](O)[C@H]6O[C@@H]6O[C@@H](C)[C@H](O)[C@@H](O)[C@H]6O)CC[C@]5(C)[C@H]4CC[C@]3(C)[C@H]1[C@@H]2C [DIOSCIN] |  |  |  |  |  |  |  |  |  |  |  |  |  |  |  |  |  |  | 0.2%
5.7 | C[C@@H]1CC[C@@]2(OC1)O[C@H]1C[C@H]3[C@@H]4CC=C5C[C@@H](O)CC[C@]5(C)[C@H]4CC[C@]3(C)[C@H]1[C@@H]2C [DISOGENIN] |  | 33.67 g |  | 574.17 mg/dL | >=600 mg/dl |  |  | >=600 mg/dl |  | 598 mg/dL |  |  | 38.67 g | 32.83 g |  |  | 38.33 g |  | 
 | C[C@@H]1CC[C@@]2(OC1)O[C@H]1C[C@H]3[C@@H]4CC=C5C[C@@H](O[C@@H]6O[C@H](CO)[C@@H](O)[C@H](O)[C@H]6O)CC[C@]5(C)[C@H]4CC[C@]3(C)[C@H]1[C@@H]2C [DISOGLUSIDE] | Active | 31.58 g |  | 571.75 mg/dL | >=600 mg/dl |  | Active | 583.55 mg/dL |  | 592.33 mg/dL | Active | Active | 34.92 g | 33.17 g |  |  | 33.39 g |  | 
